Results: US11667602B2, “Compounds and their use” (AstraZeneca AB, priority 2020, dated 2023)
Converted amounts (≈) assume the structure as drawn. Read-outs that look alike come from different tables or passages of the source.

Tests used:
[1] = Human Liver Microsomal Stability (Test C); assay type: in vitro ADME; conditions: human, liver microsomes
Protocol: Human Liver Microsomal Stability (Test C)
The assay was conducted according to the Human Liver Microsome Stability Assay described in pages 170-174 of Wernevik, J. et al., “A Fully Integrated Assay Panel for Early Drug Metabolism and Pharmacokinetics Profiling”, Assay and Drug Development Technologies, 2020, 18(4), 157-179. Data are reported in Table 36 as CLint (μl/min/mg protein). Where the assay was run multiple times for the same compound, the arithmetic mean is reported.

[2] = Rat Hepatocyte Stability (Test E); assay type: in vitro ADME; conditions: rat, hepatocytes, geometric mean if run multiple times
Protocol: Rat Hepatocyte Stability (Test E)
The assay was conducted according to the Rat Hepatocyte Stability Assay described in pages 170-174 of Wernevik, J. et al., “A Fully Integrated Assay Panel for Early Drug Metabolism and Pharmacokinetics Profiling”, Assay and Drug Development Technologies, 2020, 18(4), 157-179. Data are reported in Table 36 as mean Clint(μl/min/10^6 cells). Where the assay was run multiple times for the same compound, the geometric mean is reported.

[3] = Solubility (Test F); assay type: physicochemical; conditions: arithmetic mean if run multiple times
Protocol: The assay was conducted according to the Solubility Assay described in pages 164-167 of Wernevik, J. et al., “A Fully Integrated Assay Panel for Early Drug Metabolism and Pharmacokinetics Profiling”, Assay and Drug Development Technologies, 2020, 18(4), 157-179. Data are reported in Table 36 as solubility ([…]. Where the assay was run multiple times for the same compound, the arithmetic mean is reported.

[4] = target: T1, human RXFP1 (Homo sapiens, UniProt Q9HBX9); assay: RXFP1 Hu cAMP (Test A); assay type: cell-based; design: expressed in transfected cells; host or cells: Jump-In T-REx CHO-K1 cells (ThermoFisher), induced with 10 ng/ml doxycycline for 24 h
T1 sequence (Q9HBX9 1-757): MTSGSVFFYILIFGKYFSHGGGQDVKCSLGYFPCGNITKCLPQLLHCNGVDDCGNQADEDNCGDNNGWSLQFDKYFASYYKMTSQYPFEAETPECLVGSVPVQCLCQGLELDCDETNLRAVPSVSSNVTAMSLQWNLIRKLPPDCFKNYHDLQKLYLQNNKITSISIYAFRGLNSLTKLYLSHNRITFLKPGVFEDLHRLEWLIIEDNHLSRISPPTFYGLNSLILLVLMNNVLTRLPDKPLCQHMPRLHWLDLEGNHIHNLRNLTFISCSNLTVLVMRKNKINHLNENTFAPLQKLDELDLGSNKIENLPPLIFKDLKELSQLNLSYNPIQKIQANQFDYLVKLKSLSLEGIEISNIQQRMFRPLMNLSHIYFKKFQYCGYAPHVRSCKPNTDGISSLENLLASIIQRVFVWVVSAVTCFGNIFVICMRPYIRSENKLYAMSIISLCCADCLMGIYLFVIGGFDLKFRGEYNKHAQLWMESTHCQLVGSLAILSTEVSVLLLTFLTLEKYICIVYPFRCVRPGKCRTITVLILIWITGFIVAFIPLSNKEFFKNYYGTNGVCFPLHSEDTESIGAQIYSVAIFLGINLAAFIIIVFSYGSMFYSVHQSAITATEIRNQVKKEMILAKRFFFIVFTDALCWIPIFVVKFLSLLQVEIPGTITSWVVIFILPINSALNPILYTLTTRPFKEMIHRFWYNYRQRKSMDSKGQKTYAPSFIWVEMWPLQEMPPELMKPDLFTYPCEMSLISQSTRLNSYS
How it was run: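 Competitive HTRF cAMP readout (2 h, room temperature) in CHO-K1 cells stably expressing human RXFP1, induced with 10 ng/ml doxycycline for 24 h; IBMX 0.5 mM final.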

[5] = RXFP1 Hu cAMP, read-out: Test A EC50

| microsomal CLint [1] [µL/min/mg] | hepatocyte CLint [2] [µL/min/1e6 cells] | solubility [3] [µM] | EC50 [4, 5] [nM] | Test A Sinf ([4]; RXFP1 Hu cAMP) [%] | Molecule | EC50 ([4]; Test A EC50, RXFP1 Hu cAMP) [nM] |
| --- | --- | --- | --- | --- | --- | --- |
| 20 | 16 | 860 (≈ 558 µg/mL) | – | 85 | COc1cc(F)c(-c2ccc(C(=O)O)c(C)c2)cc1C(=O)N[C@@H]1[C@H]2CC[C@H](C2)[C@@H]1C(=O)Nc1cccc(S(=O)(=O)C(F)(F)F)c1 [Example 246] | – |
| 53 | 36 | 240 (≈ 159 µg/mL) | 100 | 111 | COc1cc(F)c(-c2ccc(CCC(=O)O)cc2)cc1C(=O)N[C@@H]1[C@H]2CC[C@H](C2)[C@@H]1C(=O)Nc1cccc(S(=O)(=O)C(F)(F)F)c1 [Example 244] | – |
| 31 | 38 | 250 (≈ 157 µg/mL) | 190 | 105 | COc1cc(F)c(O[C@H]2CC[C@@H](C(=O)O)CC2)cc1C(=O)N[C@@H]1[C@H]2CC[C@H](C2)[C@@H]1C(=O)Nc1cc(C(F)(F)F)ccc1Cl [Example 26] | – |
| – | – | – | > 40000 | – | COc1cc(F)c(O[C@H]2CC[C@@](C)(C(=O)O)CC2)cc1C(=O)NC1COCCC1C(=O)Nc1cccc(S(=O)(=O)C(F)(F)F)c1 (single isomer, unassigned) [Example 558, (1R,4s)-4-(2-Fluoro-4-methoxy-5-(((3S*,4S*)-4-((3-((trifluoromethyl)sulfonyl)phenyl)carbamoyl)tetrahydro-2H-pyran-3-yl)carbamoyl)phenoxy)-1-methylcyclohexane-1-carboxylic acid] | – |
| – | – | – | 600 | 91 | COc1cc(F)c(O[C@H]2CC[C@@](C)(C(=O)O)CC2)cc1C(=O)N[C@@H]1[C@H]2CC[C@H](C2)[C@@H]1C(=O)N[C@H]1CCCC1(C)C (relative stereo) [Example 504, (1S,4s)-4-(5-(((1S,2R,3S,4R)-3-(((R*)-2,2-Dimethylcyclopentyl)carbamoyl)bicyclo[2.2.1]heptan-2-yl)carbamoyl)-2-fluoro-4-methoxyphenoxy)-1-methylcyclohexane-1-carboxylic acid] | – |
| – | – | – | 260 | 91 | COc1cc(F)c(O[C@H]2CC[C@@](C)(C(=O)O)CC2)cc1C(=O)N[C@@H]1[C@H]2CC[C@H](C2)[C@@H]1C(=O)NC1CCCC1 [Example 599] | – |
| – | – | – | 7700 | 67 | COc1cc(F)c(-c2ccc(C(=O)O)cc2)cc1C(=O)N[C@H]1[C@@H](C(=O)N[C@H]2CCCN(S(=O)(=O)C(F)(F)F)C2)[C@@H]2C=C[C@H]1C2 (racemic) [Example 311] | – |

Second part, the molecule before the results:

| Molecule | microsomal CLint [1] [µL/min/mg] | hepatocyte CLint [2] [µL/min/1e6 cells] | solubility [3] [µM] | EC50 [4, 5] [nM] | Test A Sinf ([4]; RXFP1 Hu cAMP) [%] | EC50 ([4]; Test A EC50, RXFP1 Hu cAMP) [nM] |
| --- | --- | --- | --- | --- | --- | --- |
| COc1cc(F)c(O[C@H]2CC[C@@](C)(C(=O)O)CC2)cc1C(=O)N[C@@H]1CCC[C@@H]1C(=O)N[C@@H](C)C1(C)CC1 (racemic) [Example 63] | 11 | 19 | 610 (≈ 316 µg/mL) | > 50000 | – | – |
| COc1cc(F)c(O[C@H]2CC[C@@](C)(C(=O)O)CC2)cc1C(=O)N[C@@H]1CCC[C@@H]1C(=O)N[C@H](C)C(C)C [Example 60] | 7 | 11 | > 1000 | – | 105 | – |
| CC1(CNC(=O)[C@H]2[C@@H]3CC[C@@H](C3)[C@H]2NC(=O)c2cc(O[C@H]3CC[C@@](C)(C(=O)O)CC3)c(F)cc2OCF)CCC1 [Example 4, (1S,4s)-4-(2-Fluoro-4-(fluoromethoxy)-5-(((1S,2R,3S,4R)-3-(((1-methylcyclobutyl)methyl)carbamoyl)bicyclo[2.2.1]heptan-2-yl)carbamoyl)phenoxy)-1-methylcyclohexane-1-carboxylic acid] | 36 | 6.9 | > 1000 | – | 103 | 4.7 |
| COc1cc(F)c(O[C@H]2CC[C@@](C)(C(=O)O)CC2)cc1C(=O)N[C@@H]1CCC[C@@H]1C(=O)NCC1(C)CCCCC1 [Example 64] | 74 | 67 | 870 (≈ 476 µg/mL) | – | 107 | – |
| COc1cc(F)c(O[C@H]2CC[C@@](C)(C(=O)O)CC2)cc1C(=O)N[C@@H]1CCC[C@@H]1C(=O)NCC(C)(C)C [Example 57, (1S,4s)-4-(2-Fluoro-4-methoxy-5-(((1R,2S)-2-(neopentylcarbamoyl)cyclopentyl)carbamoyl)phenoxy)-1-methylcyclohexane-1-carboxylic acid] | 4.9 | 11 | > 1000 | 660 | 99 | – |
| COc1cc(F)c(O[C@H]2CC[C@@](C)(C(=O)O)CC2)cc1C(=O)N[C@@H]1CCC[C@@H]1C(=O)NC(C(C)C)C(C)C [Example 62] | 94 | 55 | > 1000 | > 4200 | 93 | – |
| COc1cc(F)c(O[C@H]2CC[C@@](C)(C(=O)O)CC2)cc1C(=O)N[C@@H]1CCC[C@@H]1C(=O)NCC(C)C [Example 66] | < 3 | 12 | > 1000 | – | 101 | – |
| COc1cc(F)c(O[C@H]2CC[C@@](C)(C(N)=O)CC2)cc1C(=O)N[C@@H]1[C@H]2CC[C@H](C2)[C@@H]1C(=O)NCC(C)(C)C [Example 53, (1R,2S,3R,4S)-3-(5-(((1s,4S)-4-Carbamoyl-4-methylcyclohexyl)oxy)-4-fluoro-2-methoxybenzamido)-N-neopentylbicyclo[2.2.1]heptane-2-carboxamide] | 130 | 150 | 39 (≈ 20.7 µg/mL) | 160 | 122 | – |
| COc1cc(F)c(O[C@H]2CC[C@@](C)(C(=O)O)CC2)cc1C(=O)N[C@@H]1CCC[C@@H]1C(=O)N[C@@H](C)C(C)(C)C [Example 61] | 7.4 | 13 | > 1000 | 15000 | 96 | – |
| COc1cc(F)c(O[C@H]2CC[C@@](C)(C(=O)O)CC2)cc1C(=O)N[C@@H]1CCC[C@@H]1C(=O)N[C@@H](C)C(C)C [Example 55, (1S,4s)-4-(2-Fluoro-4-methoxy-5-(((1R,2S)-2-(((S)-3-methylbutan-2-yl)carbamoyl)cyclopentyl)carbamoyl)phenoxy)-1-methylcyclohexane-1-carboxylic acid] | < 3 | 16 | > 1000 | > 8400 | 100 | – |
| COc1cc(F)c(O[C@H]2CC[C@@](C)(C(=O)O)CC2)cc1C(=O)NC1COCC1C(=O)NCC(C)(C)C (single isomer, unassigned) [Example 566, (1R,4s)-4-(2-Fluoro-4-methoxy-5-(((3S*,4R*)-4-(neopentylcarbamoyl)tetrahydrofuran-3-yl)carbamoyl)phenoxy)-1-methylcyclohexane-1-carboxylic acid] | – | – | – | > 40000 | – | – |
| (1R,4s)-4-(2-Fluoro-5-(((1S*,2R*)-2-((4-fluoro-3-(pentafluoro-λ6-sulfaneyl)phenyl)carbamoyl)cyclobutyl)carbamoyl)-4-methoxyphenoxy)-1-methylcyclohexane-1-carboxylic acid [Example 571] | – | – | – | – | 100 | – |
